Measured values from publication PMC7515829, “HKDC1 C-terminal based peptides inhibit extranodal natural killer/T-cell lymphoma by modulation of mitochondrial function and EBV suppression” (Leukemia, 2020).

Experiments:
[1] = tested on: Hela; experiment: Cell death IC50 by PI staining/FACS; type: cell-based; conditions: Human cervix adenocarcinoma/EBV(−), 0.1–15 µM, 6 h (suspension) or 12 h (adherent cells), mean ± SEM, read-out: Peptide IC50 (µM), cell death, Hela
Method: (§1) Measurement of apoptosis and cell death. Apoptosis was evaluated by TUNEL assay using the In Situ Cell Death Detection Kit™ (Roche). Cells were fixed in 4% paraformaldehyde and labeled with TUNEL reagents. Stained cells were photographed by a fluorescence microscope (11). For cell death analysis, the propidium iodide (PI) staining was performed by addition of 6.25 µg/ml of PI to the cells, and cell death was immediately evaluated by FACS analysis (3).

[2] = tested on: Kasumi-1; experiment: Cell death IC50 by PI staining/FACS; type: cell-based; conditions: Human acute myeloblastic leukemia/EBV(−), 0.1–15 µM, 6 h (suspension) or 12 h (adherent cells), mean ± SEM, read-out: Peptide IC50 (µM), cell death, Kasumi-1
Method: as §1

[3] = tested on: SW480; experiment: Cell death IC50 by PI staining/FACS; type: cell-based; conditions: Human colorectal adenocarcinoma/EBV(−), 0.1–15 µM, 6 h (suspension) or 12 h (adherent cells), mean ± SEM, read-out: Peptide IC50 (µM), cell death, SW480
Method: as §1

[4] = tested on: U266B1; experiment: Cell death IC50 by PI staining/FACS; type: cell-based; conditions: Human B lymphoblast/EBV(−), 0.1–15 µM, 6 h (suspension) or 12 h (adherent cells), mean ± SEM, read-out: Peptide IC50 (µM), cell death, U266B1
Method: as §1

[5] = tested on: MDA-MB-231; experiment: Cell death IC50 by PI staining/FACS; type: cell-based; conditions: Human breast adenocarcinoma/EBV(−), 0.1–15 µM, 6 h (suspension) or 12 h (adherent cells), mean ± SEM, read-out: Peptide IC50 (µM), cell death, MDA-MB-231
Method: as §1

[6] = tested on: SNT8; experiment: Cell death IC50 by PI staining/FACS; type: cell-based; conditions: Human natural killer/T-cell lymphoma/EBV(+), 0.1–15 µM, 6 h (suspension) or 12 h (adherent cells), mean ± SEM, read-out: Peptide IC50 (µM), cell death, SNT8
Method: as §1

[7] = tested on: HANK1; experiment: Cell death IC50 by PI staining/FACS; type: cell-based; conditions: Human natural killer/T-cell lymphoma/EBV(+), 0.1–15 µM, 6 h (suspension) or 12 h (adherent cells), mean ± SEM, read-out: Peptide IC50 (µM), cell death, HANK1
Method: as §1

[8] = tested on: SW620; experiment: Cell death IC50 by PI staining/FACS; type: cell-based; conditions: Human colorectal adenocarcinoma/EBV(−), 0.1–15 µM, 6 h (suspension) or 12 h (adherent cells), mean ± SEM, read-out: Peptide IC50 (µM), cell death, SW620
Method: as §1

[9] = tested on: Namalwa; experiment: Cell death IC50 by PI staining/FACS; type: cell-based; conditions: Human Burkitt’s lymphoma/EBV(+), 0.1–15 µM, 6 h (suspension) or 12 h (adherent cells), mean ± SEM, read-out: Peptide IC50 (µM), cell death, Namalwa
Method: as §1

[10] = tested on: EBV; experiment: EBV viral genomes/cell by qPCR in tumor tissue; type: in vivo, mouse; conditions: SNK6 xenograft, nude mice; intratumoral 50 µM peptide every 2 days from day ~18; tissue day 50; qPCR vs CTL; n = 4
Method: Detection of EBV copy number. Genomic DNA was extracted from treated SNK-6 cells or SNK-6 tumor tissue in mice using a QIAamp DNA Mini Kit (Qiagen). The EBV DNA copy number was measured through qPCR using 50ng of total DNA with EBV BMRF1 primers (see Table 1), and the results were normalized using cellular β-actin (primers see Table 1) as an internal control (13, 14). The Namalwa cell line, which contains 2 EBV viral genome copies, was used as a standard to prepare calibration curves for both EBV BMRF1 and β-actin genes, and the EBV viral load was presented as the number of viral genomes per cell (15, 16).

[11] = molecular target: HKDC1/VDAC1 (Homo sapiens, UniProt P21796); experiment: IP/WB HKDC1 binding with VDAC1 in xenograft tumor tissue; type: in vivo, mouse; set-up: from tissue; host or cells: SNK6 xenograft tumor tissue from Balb/c athymic nude mice; conditions: SNK6 xenograft, nude mice; intratumoral 50 µM peptide every 2 days from day ~18; tissue day 50; IP/WB vs CTL; n = 5
Method: Immunoprecipitation (IP) and Western Blotting (WB). Cell lysates were pre-cleared by pre-immune IgG plus Protein A agarose beads for 2 hours, and the supernatants were immunoprecipitated by the indicated antibodies and a 50% slurry of Protein A Agarose beads overnight at 4 °C (9). After washing with buffer containing 50 mM Tris, pH 7.5, 150 mM NaCl, 1% NP-40, and 0.5% deoxycholate with protease inhibitors, proteins were released, separated on 10% SDS-PAGE gels, blotted by primary antibodies, and then simultaneously incubated with the differentially labeled species-specific secondary antibodies, anti-RABBIT IRDye™ 800CW (green) and anti-MOUSE (or goat) ALEXA680 (red). Membranes were scanned and quantitated by the ODYSSEY Infrared Imaging System (LI-COR, NE) (10).
Biomedical analysis of tumor tissues.

[12] = tested on: SNK6 cells; conditions: 0.5 µM peptide, 6 h, vs CTL, n = 3 (Fig. 5g)
Method: Immunostaining. […] The cells were then washed three times and the FITC labeled anti-mouse secondary antibody (1:100) was added for blotting for another 1 hour. After thorough washing, the slides were visualized and photographed, the nuclei of cells were stained with 4’,6-diamidino-2-phenylindole dihydrochloride (DAPI, #D9542, from Sigma), and the positive Ki-67 cells were quantitated.

[13] = tested on: SNK6 cells; experiment: Colony formation in soft agar; type: cell-based, human; conditions: 0.5 µM peptide, 6 h, vs CTL, n = 5 (Fig. 5e)
Method: Colony formation in soft agar. This assay is a method for evaluating the ability of individual cell lines to grow in an anchorage-independent manner. Cells were resuspended in DMEM containing 5% FBS with 0.3% agarose and layered on top of 0.5% agarose in DMEM on 60-mm plates. 1000 cells were seeded in 60mm soft agar dishes for 30 days. The dishes were examined twice per week, and colonies that grew beyond […] in diameter were scored as positive. Each experiment was done in quadruplicate (8).

[14] = tested on: SNK6 cells; experiment: 8-OHdG formation (DNA damage ELISA); type: cell-based, human; conditions: 0.5 µM peptide, 6 h, vs CTL, n = 5 (Fig. 3c)
Method: Measurement of DNA breaks. 8-OHdG formation was measured using an OxiSelect™ Oxidative DNA Damage ELISA Kit (Cat No. STA320, from Cell Biolabs Inc.) per manufacturers’ instructions. The formation of γH2AX was measured from nuclear extracts by western blotting using H2AX as the input control (8).

Sequence of HKDC1/VDAC1 (P21796 2-283 limits assumed): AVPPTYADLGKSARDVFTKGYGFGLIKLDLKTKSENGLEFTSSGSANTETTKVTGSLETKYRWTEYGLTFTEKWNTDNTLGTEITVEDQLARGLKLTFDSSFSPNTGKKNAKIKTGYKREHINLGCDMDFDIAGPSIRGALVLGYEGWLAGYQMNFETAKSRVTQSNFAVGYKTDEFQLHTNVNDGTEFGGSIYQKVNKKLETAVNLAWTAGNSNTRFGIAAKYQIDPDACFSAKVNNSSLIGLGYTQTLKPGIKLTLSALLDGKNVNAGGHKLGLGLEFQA

Substance	IC50 [1] [µM]	IC50 [2] [µM]	IC50 [3] [µM]	IC50 [4] [µM]	IC50 [5] [µM]	IC50 [6] [µM]	IC50 [7] [µM]	IC50 [8] [µM]	IC50 [9] [µM]	EBV genome replication in tumor [10] [%]	HKDC1 binding with VDAC1 in tumor [11] [%]	cell proliferation by quantitation of Ki-67 positive cells [12] [%]	colony formation [13] [%]	8-OHdG formation [14] [%]
HAIYPRH-ITAVAKRLQQAQKEN [Tf-D-HKC15]	9.8 ± 0.6	2.7 ± 0.9	8.9 ± 0.9	2.2 ± 0.6	14.4 ± 0.8	1.1 ± 0.4	1.4 ± 0.6	12.5 ± 0.8	0.9 ± 0.3	59	71	70	64	157
HAIYPRH-LQQAQKEN [Tf-D-HKC8]	6.8 ± 0.9	1.8 ± 0.6	6.7 ± 0.8	1.4 ± 0.3	11.6 ± 1.1	0.6 ± 0.3	0.7 ± 0.4	10.2 ± 0.7	0.7 ± 0.4	25	38	27	28	209
